Assay results published in US6410792B1, “Amide derivatives and methods for using the same as selective neuropeptide Y receptor antagonists” (Bayer Corporation, priority 1997, dated 2002).
Read-outs that look alike come from different tables or passages of the source.

Legend:
human Y4/PP1 receptor = human Y4/PP1 receptor (Homo sapiens, UniProt P50391); experiment: Human Y4/PP1 receptor binding assay ([125I]human PP, membrane protein)
Summary of the method: (§1)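 Filtration binding with membrane protein and drug dilution, 2 h at room temperature with mixing, radioactivity counted by gamma or scintillation. Y2: 25 pM [125I]PYY in Krebs-Ringer bicarbonate pH 7.4 with 0.01% BSA, nonspecific by 1 μM NPY. Y4/PP1: 50 pM [125I]hPP in HEPES-buffered saline pH 7.4 with protease inhibitors and 0.3% BSA, nonspecific by 1 μM hPP.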

Rat NPY5 receptor [1] = biological target: T1, Rat NPY5 receptor (Rattus norvegicus, UniProt Q63634); experiment: Rat NPY5 receptor binding assay ([125I]PYY, membrane protein)
T1 sequence (Q63634 1-445): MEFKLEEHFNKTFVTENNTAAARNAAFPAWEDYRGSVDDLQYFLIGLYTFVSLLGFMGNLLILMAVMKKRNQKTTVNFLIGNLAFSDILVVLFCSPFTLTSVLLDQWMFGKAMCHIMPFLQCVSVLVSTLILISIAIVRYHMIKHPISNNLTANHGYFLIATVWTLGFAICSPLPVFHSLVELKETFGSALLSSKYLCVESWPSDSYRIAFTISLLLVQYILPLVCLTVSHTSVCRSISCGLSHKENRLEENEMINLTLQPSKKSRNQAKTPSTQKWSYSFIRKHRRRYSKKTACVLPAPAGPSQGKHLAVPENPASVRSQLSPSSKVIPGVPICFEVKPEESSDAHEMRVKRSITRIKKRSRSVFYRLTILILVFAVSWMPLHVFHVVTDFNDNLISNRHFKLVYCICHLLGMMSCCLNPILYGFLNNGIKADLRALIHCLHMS
Summary of the method: (§2)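 Competition against porcine [125I]PYY (75-100 pM) on receptor membranes, 2 h, room temperature, Tris-based pH 7.4 buffer with BSA and bacitracin. Bound radioactivity after filtration and ice-cold rinse counted by gamma or liquid scintillation; 1 μM PYY defines nonspecific binding.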

Y2 receptor = biological target: T2, Y2 receptor (Homo sapiens, UniProt P49146); experiment: Y2 receptor binding assay ([125I]PYY, membrane protein); details: [125I]PYY, membrane protein; read-out: hNPY2 IC50
T2 sequence (P49146 1-381): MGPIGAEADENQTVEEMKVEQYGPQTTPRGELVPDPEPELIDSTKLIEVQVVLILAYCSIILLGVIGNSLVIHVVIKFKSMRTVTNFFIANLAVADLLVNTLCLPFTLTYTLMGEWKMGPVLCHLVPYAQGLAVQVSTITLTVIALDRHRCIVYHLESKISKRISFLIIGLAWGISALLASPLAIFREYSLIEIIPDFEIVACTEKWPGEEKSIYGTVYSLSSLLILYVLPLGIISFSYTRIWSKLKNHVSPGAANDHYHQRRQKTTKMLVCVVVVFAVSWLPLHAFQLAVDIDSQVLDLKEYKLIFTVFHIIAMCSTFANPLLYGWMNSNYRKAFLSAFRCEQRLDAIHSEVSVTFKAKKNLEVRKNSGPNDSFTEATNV
Summary of the method: as §1

Rat NPY5 receptor [2] = biological target: T1, Rat NPY5 receptor; experiment: Rat NPY5 cyclase assay (in vitro functional assay, forskolin-stimulated adenylate cyclase, cAMP); format: cell-based; details: 20 min; 10 μM; percentage of forskolin-stimulated adenylate cyclase; read-out: rNPY5 % FSAC (10 μM)
Summary of the method: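 Cells stably expressing rat NPY5 receptor, in serum-free DMEM with 10 mM HEPES pH 7.4 and 1 mM IBMX, received […] plus compound for 20 min at 37 °C. Reactions were stopped by boiling. cAMP was quantified by radioimmunoassay and expressed as % of forskolin-stimulated adenylate cyclase.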

Human NPY1 receptor = biological target: T3, Human NPY1 receptor (Homo sapiens, UniProt P25929); experiment: Human NPY1 receptor binding assay ([125I]PYY, SK-N-MC cells)
T3 construct: host or cells: SK-N-MC cells
T3 sequence (P25929 1-384): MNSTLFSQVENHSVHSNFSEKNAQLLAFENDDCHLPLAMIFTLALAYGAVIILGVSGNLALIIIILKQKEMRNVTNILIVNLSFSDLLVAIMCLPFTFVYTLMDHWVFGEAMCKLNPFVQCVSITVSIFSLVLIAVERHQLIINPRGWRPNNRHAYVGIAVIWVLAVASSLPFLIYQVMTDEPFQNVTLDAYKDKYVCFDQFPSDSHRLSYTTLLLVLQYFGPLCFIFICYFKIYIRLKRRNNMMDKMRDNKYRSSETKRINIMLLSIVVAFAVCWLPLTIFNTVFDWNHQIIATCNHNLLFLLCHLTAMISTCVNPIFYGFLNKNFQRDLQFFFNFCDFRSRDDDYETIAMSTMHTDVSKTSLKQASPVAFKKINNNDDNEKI
Summary of the method: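 Whole-cell competition with ~50 pM [125I]PYY on SK-N-MC monolayers, 3 h at room temperature after 30 min preincubation in HEPES-buffered (pH 7.3) serum-free DMEM containing protease inhibitors. Gamma counting of cell lysates; 1 μM NPY gave nonspecific binding.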

Human NPY5 receptor = biological target: T4, Human NPY5 receptor (Homo sapiens, UniProt Q15761); experiment: Human NPY5 receptor binding assay ([125I]PYY, membrane protein)
T4 sequence (Q15761 1-445): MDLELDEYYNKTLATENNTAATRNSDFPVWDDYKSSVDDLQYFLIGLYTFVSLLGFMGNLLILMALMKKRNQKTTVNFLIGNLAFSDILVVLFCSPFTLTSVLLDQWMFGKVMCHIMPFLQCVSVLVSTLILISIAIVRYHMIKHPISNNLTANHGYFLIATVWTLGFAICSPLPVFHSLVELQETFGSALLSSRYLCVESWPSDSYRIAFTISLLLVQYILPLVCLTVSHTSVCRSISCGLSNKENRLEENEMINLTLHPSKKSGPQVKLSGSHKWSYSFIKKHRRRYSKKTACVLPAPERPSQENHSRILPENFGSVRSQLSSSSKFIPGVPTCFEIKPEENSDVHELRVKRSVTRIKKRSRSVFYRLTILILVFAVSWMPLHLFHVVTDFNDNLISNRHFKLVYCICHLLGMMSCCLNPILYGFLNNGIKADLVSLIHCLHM
Summary of the method: as §2

[3] = [125I]human PP, membrane protein, read-out: hNPY4 IC50
[4] = [125I]PYY, read-out: rNPY5 IC50
[5] = [125I]PYY, SK-N-MC cells, read-out: hNPYI IC50
[6] = [125I]PYY, read-out: hNPY5 IC50

human Y4/PP1 receptor, sequence (P50391 whole entry): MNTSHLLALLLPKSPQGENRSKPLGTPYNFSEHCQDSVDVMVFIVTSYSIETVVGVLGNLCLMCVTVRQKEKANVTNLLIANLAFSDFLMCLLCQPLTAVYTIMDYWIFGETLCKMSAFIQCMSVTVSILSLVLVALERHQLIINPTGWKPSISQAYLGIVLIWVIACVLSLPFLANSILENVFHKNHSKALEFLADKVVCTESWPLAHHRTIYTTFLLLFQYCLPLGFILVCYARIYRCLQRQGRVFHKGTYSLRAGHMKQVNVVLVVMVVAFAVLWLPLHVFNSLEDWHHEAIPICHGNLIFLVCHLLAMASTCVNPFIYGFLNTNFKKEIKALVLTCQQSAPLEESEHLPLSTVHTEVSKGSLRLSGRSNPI

Row | SMILES | IC50 (human Y4/PP1 receptor; [3]) [nM] | melting point [°C] | IC50 (Rat NPY5 receptor [1]; [4]) [nM] | IC50 (Y2 receptor) [nM] | activity at 10 µM (Rat NPY5 receptor [2]) [%] | IC50 (Human NPY1 receptor; [5]) [nM] | IC50 (Human NPY5 receptor; [6]) [nM] | IC50 (Rat NPY5 receptor [1]; rNPY5 IC50, [125I]PYY) [nM] | IC50 (Human NPY5 receptor; hNPY5 IC50, [125I]PYY) [nM] | IC50 (human Y4/PP1 receptor) [nM] | IC50 (Human NPY1 receptor) [nM]
1 | Cl.N#CC(c1ccccc1)C1CCN(CC(=O)Nc2ccc(C3CCCCC3)cc2)CC1 (centres unmarked) [Compound 300, 2-[4-(Cyano-phenyl-methyl)-piperidin-1-yl]-N-(4-cyclohexyl-phenyl)-acetamide; hydrochloride] | > 5000 | 150 | 13 | > 5000 | 90 | > 5000 | 13 | – | – | – | –
2 | CC(=O)NCC1(c2ccccc2)CCN(CC(=O)Nc2ccc(C3CCCCC3)cc2)CC1.O=C(O)C(=O)O [Compound 301, 2-[4-(Acetylamino-methyl)-4-phenyl-piperidin-1-yl]-N-(4-cyclohexyl-phenyl)-acetamide; compound with oxalic acid] | > 5000 | 146 | – | > 5000 | 101 | > 5000 | – | 32 | 32 | – | –
3 | CCNC1(C(N)=O)CCN(CC(=O)Nc2ccc(C3CCCCC3)cc2)CC1.O=C(O)C(=O)O [Compound 302, 1-[(4-Cyclohexyl-phenylcarbamoyl)-methyl]-4-ethylamino-piperidine-4-carboxylic acid amide; compound with oxalic acid] | > 5000 | 184 | 6 | > 5000 | 107 | > 5000 | 6 | – | – | – | –
4 | CCC(=O)C1(c2ccccc2)CCN(CC(=O)Nc2ccc(C3CCCCC3)cc2)CC1.Cl [Compound 303, N-(4-Cyclohexyl-phenyl)-2-(4-phenyl-4-propionyl-piperidin-1-yl)-acetamide; hydrochloride] | – | 252 | – | > 5000 | 93 | – | 4 | 6 | – | > 5000 | > 5000
5 | CC(=O)NC1CCN(CC(=O)Nc2ccc(C(=O)c3ccccc3)cc2)C1.O=C(O)C(=O)O (centres unmarked) [Compound 304, 2-(3-Acetylamino-pyrrolidin-1-yl)-N-(4-benzoyl-phenyl)-acetamide; compound with oxalic acid] | > 5000 | 100 | 180 | > 5000 | 85 | > 5000 | 150 | – | – | – | –
